Results on 8 compounds are retold here after patent US20070009593A1, “Methods of treating cancer” (Indianan University Advanced Research, priority 2002, published 2007).

Assay [1] relates to Caco 2 cells. Nature of the assay: proliferation / combination assay in colon cancer cells. In kind it is cell-based. The settings on record: Homo sapiens; Caco 2, single agent; read-out: IC50.
Assay [2] concerns MDA-231. Nature of the assay: MTT assay, breast cancer line. Format: cell-based. Conditions: Homo sapiens, MDA-MB-231; MDA-231, 48 hours, MTT, single agent; read-out: IC50. The method, then:
The drugs were tested together at the ratio of their IC50 as single agents, over a 4-log range of concentrations. […] Viable cell number was measured by MTT assay.
(Tetrazolium dyes change colour on reduction, which living cells bring about.)

In assay [3] the test system is H23. Description: MTT assay, NSCLC cell line. Conditions: Homo sapiens, NCI-H23. Format: cell-based.
The test system of assay [4] is A549. Nature of the assay: MTT assay, NSCLC cell line. In kind it is cell-based. The settings on record: Homo sapiens; for IC80: A549, MTT assay, single agent; for IC50: MTT assay.
In assay [5] the test system is H460. Description: MTT assay, NSCLC cell line. Format: cell-based. The settings on record: Homo sapiens; for IC50: NCI-H460; for IC80: NCI-H460, single agent.
In assay [6] the test system is H522. Description: MTT assay, NSCLC cell line. In kind it is cell-based. Conditions: Homo sapiens; for IC50: NCI-H522; for IC80: NCI-H522, single agent.
Assay [7] deals with T1, chymotryptic active site of the proteasome (ZGGL-AMC cleavage) (Homo sapiens, UniProt P28074).
T1 construct: Fluorometric assay of ZGGL-AMC cleavage by Caco 2 cells; endogenous in cells; host or cells: Caco 2
Description: fluorometric assay of ZGGL-AMC cleavage by Caco 2 cells. Format: cell-based. Conditions: for ZGGL-AMC cleavage: Caco 2 cells (DMSO control 0.287).

Assay [8] concerns HUVEC. Nature of the assay: HUVEC cell spreading assay. Format: cell-based, human. Conditions: 100 μM, same spreading conditions. The procedure: Cells were fixed in 3.7% formaldehyde in PBS, blocked and stained with Oregon-green phalloidin 514 (Molecular Probes), and then digitally photographed using a Zeiss inverted fluorescence microscope equipped with a CCD camera. Cell areas were measured on the digital images using the Spot program (Diagnostic Imaging).

For assay [9], the system named is H23. Nature of the assay: cell survival at 60 hours, amprenavir. In kind it is cell-based. The settings on record: H23, 60 hours, FIG. 4. An excerpt: (§1) Three cancer cell lines (A549, H460, and H23) where treated with varying doses of amprenavir.
Assay [10] relates to A549. Description: cell survival at 60 hours, amprenavir. In kind it is cell-based. Conditions: A549, 60 hours, FIG. 4.
Excerpt: as §1

For assay [11], the system named is H460. Description: cell survival at 60 hours, amprenavir. In kind it is cell-based. The settings on record: H460, 60 hours, FIG. 4.
Excerpt: as §1

Peptide text beside a SMILES is read from it. * marks the point of attachment. Cbz = O=C(OCc1ccccc1)*

With `Cc1ccc(-c2cc(C(F)(F)F)nn2-c2ccc(S(N)(=O)=O)cc2)cc1` [Celecoxib, celecoxib], the IC50 in assay [1] is 60000 nM.

As for `CC(=O)O[C@@]12CO[C@@H]1C[C@H](O)[C@@]1(C)C(=O)[C@H](O)C3=C(C)[C@@H](OC(=O)[C@H](O)[C@@H](NC(=O)OC(C)(C)C)c4ccccc4)C[C@@](O)([C@@H](OC(=O)c4ccccc4)[C@H]21)C3(C)C` [Docetaxel, docetaxel], the IC50 in [1] stood at 5 nM; in assay [2] it was 10 nM; in assay [3] it was 5.5 nM; in [4], 4.5 nM; in [5], 5 nM; in assay [6], 4.9 nM. Besides, the IC80 in assay [4], in assay [5] and in assay [6] was above 50 nM throughout.

On to `O=c1[nH]cc(F)c(=O)[nH]1` [Formula 5-FU, 5-fluorouracil], for which the IC50 in assay [1] was determined as 28000 nM.

Turning to `CC(=O)N[C@@H](CSC(=O)[C@]1([C@@H](O)C(C)C)NC(=O)[C@H](C)[C@@H]1O)C(=O)O` [Lactacystin, lactacystin], the “blocks substrate cleavage (ZGGL-AMC)” value in [7] (5 μM, Caco 2 cells) is on record as “over 95%”. In [7] (5 μM), this compound had a ZGGL-AMC cleavage of 0.022 pmol·s^1− 10^6 cells.

`CC(C)[C@H](NC(=O)OCc1ccccc1)C(=O)N[C@H](C=O)Cc1ccccc1` [MDL 28, 170] (Cbz-Val-Phe-aldehyde) gave a blocked spreading in assay [8] of 21%.

In [7] (50 μM), `O=C(O)/C(S)=C/c1ccc(I)cc1` [PD150606] had a ZGGL-AMC cleavage of 0.187 pmol·s^1− 10^6 cells. Further, the “blocks ZGGL-AMC cleavage” value in [7] (Caco 2 cells (50 μM in table)) is reported as “less than 30%”.

Take `CC(=O)O[C@H]1C(=O)[C@@]2(C)[C@H]([C@H](OC(=O)c3ccccc3)[C@]3(O)C[C@H](OC(=O)[C@H](O)[C@@H](NC(=O)c4ccccc4)c4ccccc4)C(C)=C1C3(C)C)[C@]1(OC(C)=O)CO[C@@H]1C[C@@H]2O` [Paclitaxel, paclitaxel]: the IC50 amounted to 400 nM in [1]; 110 nM in assay [3]; 90 nM in assay [4]; 120 nM in assay [5]; 105 nM in [6]. The IC80 in assay [4], in assay [5] and in [6] was above 200 nM throughout.

amprenavir: the IC50 in [9], in [10] and in assay [11] was 4000 to 5000 nM each time.

As usually defined, the IC50 is the concentration needed to halve the response being measured. As usually defined, the IC80 is the concentration at which the effect reaches the 80% level.
